According to ChEMBL document CHEMBL1201862, “PubChem BioAssay data set” (2004):
Values belong to the compound of their own block, whether it stands above or below them. Calls of active or inactive are those of the source.

Assays:
Coagulation factor XII = target: T1, Coagulation factor XII (Homo sapiens, UniProt P00748); experiment: FXIIa inhibitor potency, concentration-response, biochemical (AID 716); type: functional
T1 sequence (P00748 whole entry): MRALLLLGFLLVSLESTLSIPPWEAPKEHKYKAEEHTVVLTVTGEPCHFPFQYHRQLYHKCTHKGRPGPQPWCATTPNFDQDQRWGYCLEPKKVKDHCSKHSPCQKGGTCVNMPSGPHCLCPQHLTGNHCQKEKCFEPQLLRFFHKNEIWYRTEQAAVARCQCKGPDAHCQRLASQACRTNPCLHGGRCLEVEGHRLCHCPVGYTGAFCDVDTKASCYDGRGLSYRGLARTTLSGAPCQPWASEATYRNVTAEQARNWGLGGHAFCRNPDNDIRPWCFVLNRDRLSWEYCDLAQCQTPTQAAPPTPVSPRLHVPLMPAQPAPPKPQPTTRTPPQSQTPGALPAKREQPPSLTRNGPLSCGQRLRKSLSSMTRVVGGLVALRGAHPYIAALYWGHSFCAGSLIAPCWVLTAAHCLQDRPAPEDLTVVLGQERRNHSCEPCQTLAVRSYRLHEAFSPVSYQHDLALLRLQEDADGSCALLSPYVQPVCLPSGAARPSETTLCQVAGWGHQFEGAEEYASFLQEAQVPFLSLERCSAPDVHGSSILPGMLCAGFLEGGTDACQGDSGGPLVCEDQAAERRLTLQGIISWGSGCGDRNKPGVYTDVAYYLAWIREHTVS

X-box-binding protein 1 = X-box-binding protein 1 (Homo sapiens, UniProt P17861); type: functional, Cricetulus griseus;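 note: confirmatory dose-response counter-screen serving a CHOP assay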
Chain of X-box-binding protein 1 (P17861 whole entry): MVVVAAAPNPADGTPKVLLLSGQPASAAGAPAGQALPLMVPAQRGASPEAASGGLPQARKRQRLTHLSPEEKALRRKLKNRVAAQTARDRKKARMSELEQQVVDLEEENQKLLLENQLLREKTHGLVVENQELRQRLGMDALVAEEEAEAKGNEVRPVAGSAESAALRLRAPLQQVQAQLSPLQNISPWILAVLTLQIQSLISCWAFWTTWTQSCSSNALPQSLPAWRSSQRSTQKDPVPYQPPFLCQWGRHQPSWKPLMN

[1] = target: DNA damage-inducible transcript 3 protein (Mus musculus, UniProt P35639); type: functional, Cricetulus griseus
Chain of DNA damage-inducible transcript 3 protein (P35639 whole entry): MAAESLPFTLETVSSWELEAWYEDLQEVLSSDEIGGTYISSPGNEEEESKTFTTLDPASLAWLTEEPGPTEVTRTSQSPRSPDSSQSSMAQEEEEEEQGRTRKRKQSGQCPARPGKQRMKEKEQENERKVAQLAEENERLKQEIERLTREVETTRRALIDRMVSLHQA

[2] = growth suppression of PTEN-null colon cells, dose response, cell-based, HCT116 PTEN knockout (AID 1047); type: functional;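 note: HCT116 colon tumor cells with PTEN knocked out; cells exposed to compound for 60 hours before readout; potency for loss of cell viability measured by luminescence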
[3] = growth suppression of beta-catenin-knockout colon cells, dose response, cell-based, HCT116, human colon tumor (AID 1045); type: functional;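 note: HCT116 colon tumor cells with beta catenin knocked out; cells exposed to compound for 60 hours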
[4] = Artemis endonuclease inhibitor potency, dose response, biochemical, fluorescence intensity (AID 720701); type: functional;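 note: Artemis endonuclease enzyme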
SUMO-activating enzyme = SUMO-activating enzyme (Homo sapiens, UniProt Q9UBT2); experiment: SUMOylation inhibitor hit validation, confirmation, SUMOylation inhibitor project, biochemical, AlphaScreen (AID 2018); type: functional
Chain of SUMO-activating enzyme (Q9UBE0 whole entry): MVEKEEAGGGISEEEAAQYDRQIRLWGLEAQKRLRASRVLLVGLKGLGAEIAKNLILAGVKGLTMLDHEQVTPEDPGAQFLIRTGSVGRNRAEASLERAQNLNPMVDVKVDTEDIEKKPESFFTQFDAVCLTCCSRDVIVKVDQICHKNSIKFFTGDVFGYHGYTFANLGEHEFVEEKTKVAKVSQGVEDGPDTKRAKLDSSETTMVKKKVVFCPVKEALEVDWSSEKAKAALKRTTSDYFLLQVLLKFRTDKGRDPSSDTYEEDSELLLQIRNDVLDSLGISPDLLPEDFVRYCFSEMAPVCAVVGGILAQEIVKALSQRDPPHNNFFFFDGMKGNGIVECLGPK
Chain of SUMO-activating enzyme (Q9UBT2 whole entry): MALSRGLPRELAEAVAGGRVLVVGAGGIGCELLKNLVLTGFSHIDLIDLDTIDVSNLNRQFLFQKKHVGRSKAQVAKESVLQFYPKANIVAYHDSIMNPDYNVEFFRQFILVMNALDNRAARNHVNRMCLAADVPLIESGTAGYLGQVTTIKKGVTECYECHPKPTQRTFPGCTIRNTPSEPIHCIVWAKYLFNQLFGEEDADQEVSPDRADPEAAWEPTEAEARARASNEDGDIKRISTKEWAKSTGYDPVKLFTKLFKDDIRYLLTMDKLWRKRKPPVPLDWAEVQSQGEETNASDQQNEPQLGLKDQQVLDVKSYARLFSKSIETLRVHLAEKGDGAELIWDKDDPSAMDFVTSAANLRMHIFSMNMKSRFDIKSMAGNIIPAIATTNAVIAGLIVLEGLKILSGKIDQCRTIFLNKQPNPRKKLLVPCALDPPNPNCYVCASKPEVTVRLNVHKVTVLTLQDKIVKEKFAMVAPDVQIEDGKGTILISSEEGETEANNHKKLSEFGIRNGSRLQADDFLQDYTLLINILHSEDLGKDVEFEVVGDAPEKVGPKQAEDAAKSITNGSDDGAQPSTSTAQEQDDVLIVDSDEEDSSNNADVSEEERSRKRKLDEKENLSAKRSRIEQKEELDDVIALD

[5] = target: Alkaline phosphatase, placental type (Homo sapiens, UniProt P05187); experiment: PLAP enzyme inhibitors, confirmation, biochemical, luminescence (AID 1512); type: functional
Chain of Alkaline phosphatase, placental type (P05187 whole entry): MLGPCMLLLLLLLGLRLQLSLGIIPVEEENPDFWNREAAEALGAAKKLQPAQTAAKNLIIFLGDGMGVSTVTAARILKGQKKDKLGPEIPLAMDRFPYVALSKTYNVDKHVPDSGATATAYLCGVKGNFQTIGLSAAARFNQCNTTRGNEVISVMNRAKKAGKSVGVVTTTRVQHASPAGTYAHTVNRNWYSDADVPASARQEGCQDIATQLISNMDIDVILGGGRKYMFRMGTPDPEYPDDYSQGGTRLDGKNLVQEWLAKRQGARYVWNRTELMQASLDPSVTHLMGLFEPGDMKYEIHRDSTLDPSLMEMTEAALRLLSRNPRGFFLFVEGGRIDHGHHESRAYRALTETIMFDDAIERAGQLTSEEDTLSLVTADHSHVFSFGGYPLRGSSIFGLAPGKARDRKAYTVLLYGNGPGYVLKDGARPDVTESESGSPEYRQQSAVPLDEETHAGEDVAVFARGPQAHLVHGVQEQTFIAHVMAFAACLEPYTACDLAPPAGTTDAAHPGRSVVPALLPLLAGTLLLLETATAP

Mu-type opioid receptor = Mu-type opioid receptor (Homo sapiens, UniProt P35372); experiment: SAR Analysis of Antagonists of the MOR Receptor using an Image-Based Assay - Set 3. [Related pubchem assays (depositor defined):AID1777, AID1785, AID1786, AID1966, AID2133, AID2136, AID2284, AID2285, AID2420]; type: functional
Chain of Mu-type opioid receptor (P35372 whole entry): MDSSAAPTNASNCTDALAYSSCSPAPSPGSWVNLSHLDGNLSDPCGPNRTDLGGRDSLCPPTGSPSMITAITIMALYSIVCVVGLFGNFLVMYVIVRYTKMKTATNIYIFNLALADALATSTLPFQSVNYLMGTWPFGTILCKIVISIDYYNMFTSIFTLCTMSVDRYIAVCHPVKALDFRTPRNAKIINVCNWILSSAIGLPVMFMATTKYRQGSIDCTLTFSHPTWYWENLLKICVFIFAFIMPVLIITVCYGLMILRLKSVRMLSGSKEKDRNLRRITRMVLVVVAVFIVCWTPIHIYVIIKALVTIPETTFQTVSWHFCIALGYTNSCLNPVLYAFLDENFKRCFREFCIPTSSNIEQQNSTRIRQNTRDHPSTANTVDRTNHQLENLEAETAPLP

[6] = target: T2, Kappa-type opioid receptor (Homo sapiens, UniProt P41145); experiment: SAR analysis of small molecule antagonists of the kappa opioid receptor via a luminescent beta-arrestin assay - Set 3. [Related pubchem assays (depositor defined):AID1777, AID1778, AID1785, AID1786, AID1966, AID2133, AID2136, AID2285, AID2495]; type: functional
T2 sequence (P41145 whole entry): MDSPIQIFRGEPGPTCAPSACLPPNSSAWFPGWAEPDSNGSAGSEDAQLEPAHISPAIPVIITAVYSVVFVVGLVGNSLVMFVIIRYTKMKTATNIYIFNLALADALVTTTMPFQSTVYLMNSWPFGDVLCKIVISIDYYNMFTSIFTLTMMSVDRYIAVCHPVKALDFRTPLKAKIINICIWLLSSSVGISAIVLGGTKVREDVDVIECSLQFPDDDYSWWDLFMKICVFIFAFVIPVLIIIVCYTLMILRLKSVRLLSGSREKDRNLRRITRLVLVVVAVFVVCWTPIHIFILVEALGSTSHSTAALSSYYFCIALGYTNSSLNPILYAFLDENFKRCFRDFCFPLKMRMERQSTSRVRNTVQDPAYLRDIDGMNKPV

[7] = target: T2, Kappa-type opioid receptor; experiment: SAR analysis of Antagonists of the Kappa Opioid Receptor (KOR) using an Image-Based Assay - Set 3. [Related pubchem assays (depositor defined):AID1777, AID1785]; type: functional
[8] = target: Delta-type opioid receptor (Homo sapiens, UniProt P41143); experiment: SAR Analysis of Antagonists of the DOR Receptor using an Image-Based Assay - Set 3. [Related pubchem assays (depositor defined):AID1777, AID1785]; type: functional;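 note: U2OS cells expressing DOR1 and beta-arrestin GFP stimulated with 100 nM SNC80; imaging of GFP-tagged beta-arrestin moving into spots after receptor activation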
Chain of Delta-type opioid receptor (P41143 whole entry): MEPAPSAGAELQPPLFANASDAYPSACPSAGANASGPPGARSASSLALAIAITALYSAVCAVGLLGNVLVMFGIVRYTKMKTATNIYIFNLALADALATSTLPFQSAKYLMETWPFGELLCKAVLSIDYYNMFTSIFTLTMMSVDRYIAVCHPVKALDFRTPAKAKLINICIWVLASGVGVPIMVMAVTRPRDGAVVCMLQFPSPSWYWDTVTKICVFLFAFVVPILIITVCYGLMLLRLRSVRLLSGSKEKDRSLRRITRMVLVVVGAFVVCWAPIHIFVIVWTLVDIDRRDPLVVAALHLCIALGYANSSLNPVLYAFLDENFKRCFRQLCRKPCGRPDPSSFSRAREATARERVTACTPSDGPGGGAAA

[9] = target: T3, Mannose-6-phosphate isomerase (Homo sapiens, UniProt P34949); experiment: PMI enzyme inhibitors, confirmation, biochemical, fluorescence intensity (AID 1535)
T3 sequence (P34949 whole entry): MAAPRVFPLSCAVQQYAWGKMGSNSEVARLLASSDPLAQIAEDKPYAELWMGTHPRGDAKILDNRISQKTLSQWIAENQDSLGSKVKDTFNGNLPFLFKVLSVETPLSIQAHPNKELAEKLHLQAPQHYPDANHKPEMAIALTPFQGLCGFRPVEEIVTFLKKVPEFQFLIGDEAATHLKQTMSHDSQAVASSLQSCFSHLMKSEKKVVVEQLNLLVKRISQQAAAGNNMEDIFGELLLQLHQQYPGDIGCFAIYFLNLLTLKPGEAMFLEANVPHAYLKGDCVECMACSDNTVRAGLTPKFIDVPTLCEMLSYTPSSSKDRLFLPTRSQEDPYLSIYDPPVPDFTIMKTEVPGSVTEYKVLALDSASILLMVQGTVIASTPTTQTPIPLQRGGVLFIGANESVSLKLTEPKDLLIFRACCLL

Phosphomannomutase 2 = Phosphomannomutase 2 (Homo sapiens, UniProt O15305); experiment: Counter screen SAR assay for PMM2 inhibitors via a fluorescence intensity assay. [Related pubchem assays (depositor defined):AID1545, AID1574]
Chain of Phosphomannomutase 2 (O15305 whole entry): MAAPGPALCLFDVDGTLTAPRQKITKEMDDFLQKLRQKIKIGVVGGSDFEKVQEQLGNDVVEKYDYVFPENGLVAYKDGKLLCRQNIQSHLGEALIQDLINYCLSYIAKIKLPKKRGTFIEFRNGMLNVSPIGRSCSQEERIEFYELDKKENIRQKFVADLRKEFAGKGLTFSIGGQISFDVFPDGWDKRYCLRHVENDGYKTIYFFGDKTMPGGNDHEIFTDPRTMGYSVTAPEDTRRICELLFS

[10] = target: Phosphoethanolamine/phosphocholine phosphatase (Homo sapiens, UniProt Q8TCT1); experiment: SAR assay for compounds that inhibit PHOSPHO1. [Related pubchem assays (depositor defined):AID1545, AID1565, AID1574]
Chain of Phosphoethanolamine/phosphocholine phosphatase (Q8TCT1 whole entry): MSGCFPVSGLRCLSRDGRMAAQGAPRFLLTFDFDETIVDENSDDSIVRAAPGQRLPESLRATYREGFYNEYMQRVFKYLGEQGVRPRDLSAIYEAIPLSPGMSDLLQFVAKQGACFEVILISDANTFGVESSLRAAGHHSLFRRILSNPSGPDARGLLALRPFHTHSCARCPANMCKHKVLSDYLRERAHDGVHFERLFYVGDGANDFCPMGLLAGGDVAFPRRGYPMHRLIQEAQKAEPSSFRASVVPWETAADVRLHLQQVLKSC

[11] = target: T4, Alkaline phosphatase, tissue-nonspecific isozyme (Homo sapiens, UniProt P05186); experiment: human TNAP enzyme inhibitors, SAR follow-up, biochemical, luminescent, dose response (AID 1056)
T4 sequence (P05186 whole entry): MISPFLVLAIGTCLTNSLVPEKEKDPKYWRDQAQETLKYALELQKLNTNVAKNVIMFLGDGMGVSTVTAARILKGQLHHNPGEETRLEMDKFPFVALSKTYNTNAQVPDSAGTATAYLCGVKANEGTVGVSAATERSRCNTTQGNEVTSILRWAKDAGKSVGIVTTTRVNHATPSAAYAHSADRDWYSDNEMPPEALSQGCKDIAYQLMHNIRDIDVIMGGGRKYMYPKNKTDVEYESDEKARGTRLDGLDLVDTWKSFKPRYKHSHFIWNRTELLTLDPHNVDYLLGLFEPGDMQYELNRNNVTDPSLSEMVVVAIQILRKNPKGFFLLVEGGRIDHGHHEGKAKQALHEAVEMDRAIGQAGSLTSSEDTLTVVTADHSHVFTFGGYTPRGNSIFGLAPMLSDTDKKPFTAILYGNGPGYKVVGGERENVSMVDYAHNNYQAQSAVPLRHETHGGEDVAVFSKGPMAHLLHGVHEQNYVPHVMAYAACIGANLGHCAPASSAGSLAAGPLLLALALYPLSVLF

[12] = target: T5, Runt-related transcription factor 1/Core-binding factor subunit beta (Homo sapiens, UniProt Q01196+Q13951); experiment: inhibitors of RUNX1 Runt–CBFb-SMMHC binding, biochemical, TR-FRET (AID 1438); type: protein assay
T5 sequence (Q01196 whole entry, the tested form may be a part): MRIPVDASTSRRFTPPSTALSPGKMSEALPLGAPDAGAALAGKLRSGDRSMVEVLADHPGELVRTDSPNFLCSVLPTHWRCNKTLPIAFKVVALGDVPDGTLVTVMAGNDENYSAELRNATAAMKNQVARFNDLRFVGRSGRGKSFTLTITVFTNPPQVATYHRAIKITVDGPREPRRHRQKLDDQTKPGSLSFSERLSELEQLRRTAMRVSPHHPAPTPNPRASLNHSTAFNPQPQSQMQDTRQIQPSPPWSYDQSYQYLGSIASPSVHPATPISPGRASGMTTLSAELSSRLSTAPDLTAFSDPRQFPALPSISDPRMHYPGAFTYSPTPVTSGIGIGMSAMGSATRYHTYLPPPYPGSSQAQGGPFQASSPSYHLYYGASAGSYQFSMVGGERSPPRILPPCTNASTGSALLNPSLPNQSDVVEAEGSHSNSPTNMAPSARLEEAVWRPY
T5 sequence (Q13951 whole entry, the tested form may be a part): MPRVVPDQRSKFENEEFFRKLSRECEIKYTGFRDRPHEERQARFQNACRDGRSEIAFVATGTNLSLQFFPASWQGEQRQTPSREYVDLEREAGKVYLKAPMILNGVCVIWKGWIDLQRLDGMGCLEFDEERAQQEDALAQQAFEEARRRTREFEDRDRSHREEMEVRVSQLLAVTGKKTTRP

[13] = target: T5, Runt-related transcription factor 1/Core-binding factor subunit beta; experiment: inhibitors of RUNX1 Runt–CBFb-SMMHC binding, primary screen, biochemical, FRET, Cerulean-Runt, Venus-CBFb-SMMHC, uHTS (AID 1434); type: protein assay;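 note: partner is the CBFb-SMMHC leukemia fusion protein rather than wild-type CBFb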

IC50 (Coagulation factor XII): > 50 µM (inactive)
Compound: O=C(NCc1n[nH]c(=S)n1-c1ccccc1)c1ccco1

Absolute IC50 (XBP1) (X-box-binding protein 1): 10 µM
Compound: Cc1ccc(NC(=O)c2cc(NC(=O)c3ccco3)ccc2N2CCCCC2)cc1
Absolute IC50 (CHOP) [1]: 10 µM

Compound: Cn1c(-c2ccc(C=O)s2)nc2c3ccccc3c3ccccc3c21
EC50 [2]: 25.7 µM (active) | EC50 [3]: 24.9 µM (active) | IC50 [4]: > 20 µM (inactive) | IC50 (SUMO-activating enzyme): > 100 µM (inactive)

IC50 [5]: > 100 µM (inactive)
Compound: COCCNC(=O)NC1(C(F)(F)F)Oc2cc(Cl)c(Cl)cc2O1

IC50 (Mu-type opioid receptor): > 32 µM (inactive) | IC50 [6]: 4.65 µM (active) | IC50 [7]: 1.31 µM (active) | IC50 [8]: > 32 µM (inactive)
Compound: O=C(Cn1c(=O)c2cccn2c2cccnc21)NCCCN1CCC(Cc2ccccc2)CC1

Compound: Cc1ccc(C)c(-n2[se]c3ccccc3c2=O)c1
IC50 [9]: 88 µM (active) | IC50 (Phosphomannomutase 2): > 100 µM (inactive) | IC50 [10]: 36 µM (inactive)

Compound: CC(C)NCC(=O)c1ccc(O)c(O)c1
IC50 [11]: > 100 µM (inactive)

IC50 [12]: 10.1 µM (active) | IC50 [13]: > 100 µM (inactive)
Compound: C/C(=N\Nc1nc(-c2cc(C)ccc2C)cs1)c1cc2c(ccc3ccccc32)oc1=O
